From patent publication US9233995B2, “Quinazoline derivatives and quinazoline complex protein kinase inhibitor for inhibiting multiplication of tumor cells and preparation method thereof” (INSTITUTE OF CHEMISTRY, CHINESE ACADEMY OF SCIENCES, priority 2010, dated 2016)
Where two headings read alike, the source gives them in different places.

How the values were obtained:
[1] = system: human breast cancer cell line (sensitive) MCF-7/S + EGF; assay: Cytotoxicity experiment under the condition of additional EGF, SRB method; format: cell-based; details: MCF-7/S with additional EGF 100 ng/ml, 48 h, SRB, read-out: IC50 (umol/L) Breast cancer cell (sensitive) MCF-7/S + EGF
Description: Human breast cancer cell line (sensitive) MCF-7/S and human non-small cell lung cancer cell line A549 are cultured in HAM′S/F-12 medium (HyClone, USA) containing 10 wt % fetal bovine serum (FBS, Hyclone, USA), and 100 ng/ml epidermal growth factor (EGF, Sigma, USA) is added to this medium. Cells described above were purchased from Cell Resource Center, Shanghai Institute for Biological Science, CAS, they are placed in a CO2 incubator and used for the experiment 3-5 days later.
(§1) Wherein, for experiment on compound cytotoxicity assay by sulforhodamine B (SRB) method: Cells in the logarithmic growth phase are collected and inoculated at 96-well plates (6500 cells/well/100 ul, RPMI1640 containing 100 ng/ml of EGF). After incubation for 24 h, compounds at gradient concentrations (200, 100, 50, 25, 12.5, 6.25, 1 (μM/L)) are added. The same volume of RPMI1640 containing 100 ng/ml of EGF is used as control group of the experiment; the blank group is only culture medium without cell. Three parallel wells are set up for each concentration group. After incubation is continued for 48 h, the cell survival rate is measured by SRB method. 50 μl 10% trichloroacetic acid (TCA) pre-cooled (4° C.) is added to each well, it is fixed for 1 hour at 4° C., washed with water for five times, and completely dried, and then 100 μl of SRB solution (Sigma, USA) at concentration of 0.4% by weight is added, and staining is performed at 37° C. in the dark for 30 min. Wash with acetic acid at a concentration of 1% by weight for 4-5 times, dry in the air, add 200 μl of Tris solution (10 mM, pH 10.5), after sufficiently dissolved, the absorbance (absorption wavelength is 570 nm) is measured in microplate reader.
(§2) The growth inhibition rate (IR) is calculated according to the following formula: IR (%)=[1−(experiment group A value−blank group A value)/(control group A value−blank group A value)]×100%, and the IC50 value is calculated using Origin 6.0 software.

[2] = Solubility (physicochemical properties, Table 1); details: room temperature, atmospheric pressure
[3] = Stability (physicochemical properties, Table 1); details: for Stability (photostability): light
[4] = target: T1, EGFR (Epidermal Growth Factor Receptor) (Homo sapiens, UniProt P00533); assay: Enzyme-linked immunosorbent assay (ELISA), kinase inhibitory activity (phosphorylation of PTP1B(Tyr66) biotinylated peptide substrate); format: biochemical; details: average of two independent parallel experiments
T1 construct: purchased CST
Text: Protein kinase assay kit: PTP1B(Tyr66) Biotinylated Peptide from CST company is used as a substrate of kinase EGFR (Epidermal Growth Factor Receptor).

[5] = system: prostate cancer cell PC-3; assay: Cytotoxicity experiment, SRB method, tumor cell proliferation; format: cell-based; details: PC-3, 48 h, SRB; read-out: IC50 (μmol/L) Prostate cancer cell PC-3
Description: (§3) Human breast cancer cell line (drug-resistant) MCF-7/A, human breast cancer cell line (sensitive) MCF-7/S, prostate cancer cell PC-3, keratinocyte Colo-16, human non-small cell lung cancer cell line A549 and etc. are cultured in RPMI1640 medium (Invitrogen, USA) containing 10 wt % fetal bovine serum (FBS, Hyclone, USA), and epidermal growth factor (EGF) at a concentration of 100 ng/ml is added to stimulate growth. After 2-3 days, cells in logarithmic growth phase are collected, and inoculated at 96 well plates (6500 cells/well/100 ul, RPMI1640 containing 100 ng/mL EGF) for 24 h, and then compound at gradient concentrations (200, 100, 50, 25, 12.5, 6.25, 1 μM/L) are added. The same volume of RPMI1640 containing 1 wt % of dimethyl sulfoxide (DMSO) is used as control group of the experiment; the blank group is only culture medium without cell. Three parallel wells are set up for each concentration group. After incubation is continued for 48 h, the cell survival rate is measured by SRB method. Results are shown in Table 2 and Table 3, respectively.
as §1, §2

[6] = system: human non-small cell lung cancer cell line A549; assay: as above; format: cell-based; details: A549, 48 h, read-out: IC50 (μmol/L) Non-small cell lung cancer cell A549
Description: as §3, §1, §2

[7] = system: human breast cancer cell line (sensitive) MCF-7/S; assay: as above; format: cell-based; details: 48 h, read-out: IC50 (umol/L) Breast cancer cell (sensitive) MCF-7/S
Description: as §3, §1, §2

keratinocyte Colo-16 = assay: as above; format: cell-based; details: Colo-16, 48 h, SRB, read-out: IC50 (μmol/L) Keratinocyte Colo-16
Description: as §3, §1, §2

[8] = system: Human breast cancer cell line (drug-resistant) MCF-7/A; assay: as above; format: cell-based; details: 48 h, read-out: IC50 (umol/L) Breast cancer cell (drug-resistant) MCF-7/A
Description: as §3, §1, §2

T1 sequence (P00533 25-1210): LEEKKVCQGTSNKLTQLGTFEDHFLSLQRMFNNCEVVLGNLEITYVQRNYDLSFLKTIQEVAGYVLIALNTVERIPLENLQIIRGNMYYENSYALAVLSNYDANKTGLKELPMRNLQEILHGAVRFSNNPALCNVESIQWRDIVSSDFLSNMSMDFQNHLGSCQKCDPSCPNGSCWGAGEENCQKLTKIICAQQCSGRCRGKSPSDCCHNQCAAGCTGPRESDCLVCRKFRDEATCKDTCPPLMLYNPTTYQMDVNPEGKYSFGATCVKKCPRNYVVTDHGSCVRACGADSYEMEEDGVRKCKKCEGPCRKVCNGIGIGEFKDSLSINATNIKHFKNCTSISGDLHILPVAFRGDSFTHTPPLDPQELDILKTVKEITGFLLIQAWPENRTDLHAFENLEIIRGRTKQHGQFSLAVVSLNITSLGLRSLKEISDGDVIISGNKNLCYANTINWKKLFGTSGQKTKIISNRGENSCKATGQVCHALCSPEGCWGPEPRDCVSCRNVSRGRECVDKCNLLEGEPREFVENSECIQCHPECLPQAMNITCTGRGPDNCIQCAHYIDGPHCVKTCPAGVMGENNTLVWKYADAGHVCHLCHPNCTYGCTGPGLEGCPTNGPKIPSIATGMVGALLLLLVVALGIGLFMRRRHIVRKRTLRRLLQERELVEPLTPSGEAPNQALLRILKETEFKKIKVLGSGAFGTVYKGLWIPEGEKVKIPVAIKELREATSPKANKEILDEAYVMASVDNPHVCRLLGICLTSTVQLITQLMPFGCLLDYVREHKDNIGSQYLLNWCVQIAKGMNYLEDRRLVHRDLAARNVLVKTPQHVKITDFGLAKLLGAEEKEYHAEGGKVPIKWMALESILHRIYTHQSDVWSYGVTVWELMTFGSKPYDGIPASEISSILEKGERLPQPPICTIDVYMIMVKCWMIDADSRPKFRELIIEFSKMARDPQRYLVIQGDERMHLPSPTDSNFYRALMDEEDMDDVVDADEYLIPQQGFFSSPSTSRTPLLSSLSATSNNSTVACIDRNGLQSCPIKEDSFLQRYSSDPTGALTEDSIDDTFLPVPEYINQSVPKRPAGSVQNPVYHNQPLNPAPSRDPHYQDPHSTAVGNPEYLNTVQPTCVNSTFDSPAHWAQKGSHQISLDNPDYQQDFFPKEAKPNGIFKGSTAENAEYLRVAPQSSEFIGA

## COc1cc2ncnc(Nc3ccc(F)c(Cl)c3)c2cc1OCCNCCN [ZW1001, 6-(2-(2-aminoethylamino)ethoxy)-4-(3-Chloro-4-fluoro-phenylamino)-7-methoxy quinazoline]
[1]; Homo sapiens, MCF7S
  IC50: 36.3 ± 5.77 µmol/L
[2]
  Solubility in DMSO: Highly soluble in DMSO
  Solubility in methanol and ethanol: soluble in water, soluble in methanol
  Solubility in water: slightly
[3]
  Stability (in air): Stable in air,
  Stability (photostability): photostable
[4]
  IC50: 0.0046 µM
[5]
  IC50: 38.4 ± 2.36 µmol/L
[6]; Homo sapiens
  IC50: 51 ± 1.02 µmol/L
[7]; Homo sapiens, MCF7S
  IC50: 38.34 ± 0.1 µmol/L
Keratinocyte Colo-16; Keratinocyte
  IC50: > 100 µmol/L
[8]; Homo sapiens, MCF7a
  IC50: > 100 µmol/L

## COc1cc2ncnc(Nc3ccc(F)c(Cl)c3)c2cc1OCCC[N]1CC[NH][Ru+]1([Cl])[c]1cccc(-c2ccccc2)c1.F[P-](F)(F)(F)(F)F (stereo not drawn) [ZW2006]
[1]
  IC50: 21.7 ± 7.44 µmol/L
[2]
  Solubility in DMSO: Highly soluble in DMSO
  Solubility in methanol and ethanol: soluble in water, soluble in methanol
  Solubility in water: slightly
[3]
  Stability (in air): Stable in air,
  Stability (photostability): photostable
[4]
  IC50: 0.0762 µM
[5]
  IC50: 43.8 ± 3.9 µmol/L
[6]
  IC50: > 100 µmol/L
[7]
  IC50: 48.8 ± 7.82 µmol/L
Keratinocyte Colo-16
  IC50: 55.8 ± 1.55 µmol/L
[8]
  IC50: > 100 µmol/L

## COc1cc2ncnc(Nc3ccc(F)c(Cl)c3)c2cc1OCC[N]1CC[NH][Ru+]1([Cl])[c]1cccc(-c2ccccc2)c1.F[P-](F)(F)(F)(F)F (stereo not drawn) [ZW2003]
[1]
  IC50: 28.7 ± 8.75 µmol/L
[2]
  Solubility in DMSO: Highly soluble in DMSO
  Solubility in methanol and ethanol: soluble in water, soluble in methanol
  Solubility in water: slightly
[3]
  Stability (in air): Stable in air,
  Stability (photostability): photostable
[4]
  IC50: 0.126 µM
[5]
  IC50: 81.3 ± 6.94 µmol/L
[6]
  IC50: > 100 µmol/L
[7]
  IC50: 79.1 ± 11.6 µmol/L
Keratinocyte Colo-16
  IC50: 54.2 ± 4.98 µmol/L
[8]
  IC50: > 100 µmol/L
